The source of these data is patent US20080090845A1, “Haloalkyl-substituted pyrimidinone derivatives” (Neurogen Corporation, priority 2006, published 2008).

Bounds are passed on as bounds.

The target of one experiment is T1, human capsaicin receptor (Homo sapiens, UniProt Q8NER1).
T1 construct: pBK-CMV expression construct encoding the full length human capsaicin receptor; expressed in transfected cells
T1 sequence (Q8NER1 whole entry): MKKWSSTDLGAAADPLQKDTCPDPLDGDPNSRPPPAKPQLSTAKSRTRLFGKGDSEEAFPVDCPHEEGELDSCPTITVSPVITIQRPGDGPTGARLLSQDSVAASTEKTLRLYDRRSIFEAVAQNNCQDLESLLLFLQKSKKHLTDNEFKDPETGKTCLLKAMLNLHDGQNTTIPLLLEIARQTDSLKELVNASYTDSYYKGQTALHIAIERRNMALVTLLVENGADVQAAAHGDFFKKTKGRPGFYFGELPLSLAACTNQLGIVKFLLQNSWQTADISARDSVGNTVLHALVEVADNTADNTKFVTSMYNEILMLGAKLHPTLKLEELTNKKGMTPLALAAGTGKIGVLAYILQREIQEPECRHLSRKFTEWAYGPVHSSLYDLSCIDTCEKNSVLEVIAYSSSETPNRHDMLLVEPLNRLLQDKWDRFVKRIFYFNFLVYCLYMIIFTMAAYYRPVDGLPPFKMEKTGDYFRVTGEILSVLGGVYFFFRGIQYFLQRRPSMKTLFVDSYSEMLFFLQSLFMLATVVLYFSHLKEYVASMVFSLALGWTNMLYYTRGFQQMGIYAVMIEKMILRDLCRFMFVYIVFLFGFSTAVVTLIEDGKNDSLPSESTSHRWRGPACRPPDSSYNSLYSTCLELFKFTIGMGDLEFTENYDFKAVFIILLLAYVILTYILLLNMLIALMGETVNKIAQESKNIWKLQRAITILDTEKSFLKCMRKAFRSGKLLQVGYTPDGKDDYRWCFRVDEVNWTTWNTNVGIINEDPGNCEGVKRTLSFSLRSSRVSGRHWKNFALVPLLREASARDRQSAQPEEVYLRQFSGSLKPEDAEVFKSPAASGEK
As to the kind of experiment: Calcium mobilization assay, determination of antagonist activity (Example 6). It counts as cell-based. The conditions noted are these: cells expressing human capsaicin receptor, capsaicin-induced fluorescence response; read-out: IC50. How it is done: A cDNA encoding full length human capsaicin receptor (SEQ ID NO:1, 2 or 3 of U.S. Pat. No. 6,482,611) is subcloned in the plasmid pBK-CMV (Stratagene, La Jolla, Calif.) for recombinant expression in mammalian cells.
Human embryonic kidney (HEK293) cells are transfected with the pBK-CMV expression construct encoding the full length human capsaicin receptor using standard methods. The transfected cells are selected for two weeks in media containing G418 (400 μg/ml) to obtain a pool of stably transfected cells. Independent clones are isolated from this pool by limiting dilution to obtain clonal stable cell lines for use in subsequent experiments.
Cells transfected with expression plasmids (as described in Example 4) and thereby expressing human capsaicin receptor are seeded and grown to 70-90% confluency in FALCON black-walled, clear-bottomed 96-well plates (#3904, BECTON-DICKINSON, Franklin Lakes, N.J.). The culture medium is emptied from the 96 well plates and FLUO-3 AM calcium sensitive dye (Molecular Probes, Eugene, Oreg.) is added to each well (dye solution: 1 mg FLUO-3 AM, 440 μl DMSO and 440 μl 20% pluronic acid in DMSO diluted 1:250 in Krebs-Ringer HEPES (KRH) buffer (25 mM HEPES, 5 mM KCl, 0.96 mM NaH2PO4, 1 mM MgSO4, 2 mM CaCl2, 5 mM glucose, 1 mM probenecid, pH 7.4), 50 μl diluted solution per well). Plates are covered with aluminum foil and incubated at 37° C. for 1-2 hours in an environment containing 5% CO2. After the incubation, the dye is emptied from the plates, and the cells are washed once with KRH buffer, and resuspended in KRH buffer.
To measure the ability of a test compound to agonize or antagonize a calcium mobilization response in cells expressing capsaicin receptors to capsaicin or other vanilloid agonist, the EC50 of the agonist capsaicin is first determined. An additional 20 μl of KRH buffer and 1 μl DMSO is added to each well of cells, prepared as described above. 100 μl capsaicin in KRH buffer is automatically transferred by the FLIPR instrument to each well. Capsaicin-induced calcium mobilization is monitored using either FLUOROSKAN ASCENT (Labsystems; Franklin, Mass.) or FLIPR (fluorometric imaging plate reader system; Molecular Devices, Sunnyvale, Calif.) instruments. Data obtained between 30 and 60 seconds after agonist application are used to generate an 8-point concentration response curve, with final capsaicin concentrations of 1 nM to 3 μM. KALEIDAGRAPH software (Synergy Software, Reading, Pa.) is used to fit the data to the equation: y=a*(1/(1+(b/x)^c)) to determine the 50% excitatory concentration (EC50) for the response. In this equation, y is the maximum fluorescence signal, x is the concentration of the agonist or antagonist (in this case, capsaicin), a is the Emax, b corresponds to the EC50 value and c is the Hill coefficient. Determination of Agonist Activity
Test compounds are dissolved in DMSO, diluted in 20 μl KRH buffer so that the final concentration of test compounds in the assay well is between 1 μM and 5 μM, and added to cells prepared as described above. The 96 well plates containing prepared cells and test compounds are incubated in the dark, at room temperature for 0.5 to 6 hours. It is important that the incubation not continue beyond 6 hours. Just prior to determining the fluorescence response, 100 μl capsaicin in KRH buffer at twice the EC50 concentration determined as described above is automatically added by the FLIPR instrument to each well of the 96 well plate for a final sample volume of 200 μl and a final capsaicin concentration equal to the EC50. The final concentration of test compounds in the assay wells is between 1 μM and 5 μM. […] The concentration of antagonist required to provide a 50% decrease, relative to the response observed in the presence of capsaicin and without antagonist, is the IC50 for the antagonist, and is preferably below 1 micromolar, 100 nanomolar, 10 nanomolar or 1 nanomolar.
Background: Calcium flux is commonly read through the fluorescence of an indicator in the cells.
Broadly, the IC50 is the concentration that gives 50% inhibition. On to `C[C@H](CCc1nc2c(ncn2C)c(=O)n1-c1ccc(Cl)cc1)C(F)(F)F` [Compound 33, 1-(4-chlorophenyl)-9-methyl-2-[(3R)-4,4,4-fluoro-3-methylbutyl]-1,9-dihydro-6H-purin-6-one], for which the 50% inhibitory concentration (IC50) is no more than 100 nM. Still for that read-out and setting: with `CCn1cnc2c(=O)n(-c3ccc(C#N)cc3)c(CCC(C)C(F)(F)F)nc21` (stereo not drawn) [Compound 34, 4-[9-ethyl-6-oxo-2-(4,4,4-trifluoro-3-methylbutyl)-6,9-dihydro-1H-purin-1-yl]benzonitrile] the figure was no more than 100 nM. The same measure, in the same setting: next, `CC(Cc1nc2cccnc2c(=O)n1-c1ccc(Cl)cc1)CC(F)(F)F` (stereo not drawn) [Compound 35, 3-(4-chlorophenyl)-2-(4,4,4-trifluoro-2-methylbutyl)pyrido[3,2-d]pyrimidin-4(3H)-one]: no more than 100 nM; `CCn1cnc2c(=O)n(-c3ccc(C#N)cc3)c(CC(C)C(F)(F)F)nc21` (stereo not drawn) [Compound 36, 4-[9-ethyl-6-oxo-2-(3,3,3-trifluoro-2-methylpropyl)-6,9-dihydro-1H-purin-1-yl]benzonitrile]: no more than 100 nM; `CC(Cc1nc2c(ncn2C)c(=O)n1-c1ccc(C#N)cc1)C(F)(F)F` (stereo not drawn) [Compound 37, 4-[9-methyl-6-oxo-2-(3,3,3-trifluoro-2-methylpropyl)-6,9-dihydro-1H-purin-1-yl]benzonitrile]: no more than 100 nM.

For another experiment, the target named is VR (Homo sapiens, UniProt Q8NER1).
Sequence of VR (Q8NER1 whole entry): as above
Assay: not given
The conditions noted are these: typical value, background section; cited from earlier work.
The term Ki denotes a dissociation constant, usually derived from enzyme kinetics or from competition with a known ligand. Consider `Cl.Cl.Cl.Cl.Cl.Cl.N.N.N.N.N.N.N.N.N.N.N.N.N.N.[O-2].[O-2].[Ru+3].[Ru+3].[Ru+4]` [ruthenium red], for which the Ki was no less than 140 µM.
